Test results as given in patent publication US8071586B2, “Heterocyclyl compounds” (Hoffmann-La Roche Inc., priority 2008, dated 2011).

Target: T1, human chemokine receptor 2 isoform B (CCR2) (Homo sapiens, UniProt P41597)
T1 sequence (P41597 1-360 isoform P41597-2): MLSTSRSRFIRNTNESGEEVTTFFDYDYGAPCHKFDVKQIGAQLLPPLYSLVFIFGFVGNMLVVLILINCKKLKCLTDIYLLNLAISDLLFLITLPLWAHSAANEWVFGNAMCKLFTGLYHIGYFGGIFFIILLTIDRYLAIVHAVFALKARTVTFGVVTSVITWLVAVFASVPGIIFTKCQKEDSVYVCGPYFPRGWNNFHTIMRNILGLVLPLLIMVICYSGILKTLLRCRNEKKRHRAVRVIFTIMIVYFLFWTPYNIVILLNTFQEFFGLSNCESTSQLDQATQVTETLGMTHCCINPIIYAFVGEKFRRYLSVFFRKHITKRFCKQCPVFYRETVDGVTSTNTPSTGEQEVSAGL
Assay: Calcium mobilization assay (FLIPR, MCP-1 stimulated CHOK1-CCR2B-A5 cells)
Type: cell-based
Settings: Ca mobilisation assay, CCR2 antagonist activity, inhibition of MCP-1 induced calcium increase
Experimental: Calcium Mobilization Assay
CHOK1-CCR2B-A5 cells (from Euroscreen) stably overexpressing the human chemokine receptor 2 isoform B were cultured in Nutrient Hams F12 medium supplemented with 5% FBS, 100 U/ml penicillin, 100 μg/ml streptomycin, 400 μg/ml G418 and 5 μg/ml puromycin.
For the assay cells were grown overnight in 384-well black clear flat bottom polystyrene plates (Costar) at 37° C. at 5% CO2. After washing with DMEM, 20 mM Hepes, 2.5 mM probenecid, 0.1% BSA (DMEM assay buffer) cells were loaded with 4 μM Fluo-4 in the same DMEM assay buffer for 2 hours at 30° C. Excess dye was removed and cells were washed with DMEM assay buffer. 384-well compound plates were prepared with DMEM assay buffer/0.5% DMSO with or without various concentrations of test compounds. Usually compounds were tested for agonist and antagonist activity.
Test compounds were added to the assay plate and agonist activity was monitored as fluorescence for 80 seconds with a FLIPR (488 nm excitation; 510-570 nm emission; Molecular Devices). After 20-30 min. of incubation at 30° C., […] MCP-1 (R&D; Roche) was added and fluorescence was monitored again for 80 seconds. Increases in intracellular calcium are reported as maximum fluorescence after agonist exposure minus basal fluorescence before exposure. Antagonist activity is indicated as inhibitor concentration required for 50% inhibition of specific calcium increases.

Row | SMILES | IC50
1 | COC(=O)[C@H](CCN1CCC2(CC2)[C@H](O)C1)N1CCN(C(=O)Nc2cccc(Cl)c2)CCC1=O [Example 3, (S)-2-[4-(3-Chloro-phenylcarbamoyl)-7-oxo-[1,4]diazepan-1-yl]-4-((S)-4-hydroxy-6-aza-spiro[2.5]oct-6-yl)-butyric acid methyl ester] | 270 nM
2 | C[C@H]1C(=O)N(CCCN2CCC(O)CC2)CCN1C(=O)Nc1ccc(Cl)c(Cl)c1 [Example 49, (S)-4-[3-(4-Hydroxy-piperidin-1-yl)-propyl]-2-methyl-3-oxo-piperazine-1-carboxylic acid (3,4-dichloro-phenyl)-amide] | 160 nM
3 | O=C(NCc1ccc(Cl)c(Cl)c1)N1CCC(=O)N([C@H](CO)CCN2CCC3(CC3)[C@H](O)C2)CC1 [Example 51, 4-[(S)-3-((S)-4-hydroxy-6-aza-spiro[2.5]oct-6-yl)-1-hydroxymethyl-propyl]-5-oxo-[1,4]diazepane-1-carboxylic acid 3,4-dichloro-benzylamide] | 250 nM
4 | COCC(CCN1CCC2(CC2)[C@H](O)C1)N1CCN(C(=O)NCc2ccc(Cl)c(Cl)c2)CCC1=O (stereo partly drawn) [Example 6, (R,S)-4-[3-((S)-4-Hydroxy-6-aza-spiro[2.5]oct-6-yl)-1-methoxymethyl-propyl]-5-oxo-[1,4]diazepane-1-carboxylic acid 3,4-dichloro-benzylamide] | 840 nM
5 | C[C@H]1C(=O)N(CCCN2CCC3(CC3)[C@H](O)C2)CCN1C(=O)Nc1ccc(F)c(Cl)c1 [Example 70, (S)-4-[3-((S)-4-Hydroxy-6-aza-spiro[2.5]oct-6-yl)-propyl]-2-methyl-3-oxo-piperazine-1-carboxylic acid (3-chloro-4-fluoro-phenyl)-amide] | 4 nM
6 | C[C@H]1C(=O)N(CCCN2CCCCC2)CCN1C(=O)Nc1ccc(-c2ccccc2)cc1 [Example 38, (S)-2-Methyl-3-oxo-4-(3-piperidin-1-yl-propyl)-piperazine-1-carboxylic acid biphenyl-4-ylamide] | 210 nM
7 | C[C@H]1C(=O)N(CCCCN2CCC3(CC3)[C@H](O)C2)CCN1C(=O)Nc1ccc(Cl)c(Cl)c1 [Example 90, (S)-4-[4-((S)-4-Hydroxy-6-aza-spiro[2.5]oct-6-yl)-butyl]-2-methyl-3-oxo-piperazine-1-carboxylic acid (3,4-dichloro-phenyl)-amide] | 1 nM
8 | COC[C@H](CCN1CCC2(CC2)[C@H](O)C1)N1CCN(C(=O)Nc2cccc(F)c2)[C@@H](C)C1=O [Example 83, (S)-4-[(S)-3-((S)-4-Hydroxy-6-aza-spiro[2.5]oct-6-yl)-1-methoxymethyl-propyl]-2-methyl-3-oxo-piperazine-1-carboxylic acid (3-fluoro-phenyl)-amide] | 9 nM
9 | C[C@H]1C(=O)N(CCCN2CCC[C@H]2CO)CCN1C(=O)Nc1ccc(Cl)c(Cl)c1 [Example 50, (S)-4-[3-((S)-2-Hydroxymethyl-pyrrolidin-1-yl)-propyl]-2-methyl-3-oxo-piperazine-1-carboxylic acid (3,4-dichloro-phenyl)-amide] | 120 nM
10 | C[C@H]1C(=O)N(CCCCN2CCC3(CC3)[C@H](O)C2)CCN1C(=O)Nc1ccc2ccccc2c1 [Example 91, (S)-4-[4-((S)-4-Hydroxy-6-aza-spiro[2.5]oct-6-yl)-butyl]-2-methyl-3-oxo-piperazine-1-carboxylic acid naphthalen-2-ylamide] | 6 nM
11 | COCC(CCN1CCC2(CC2)[C@H](O)C1)N1CCN(C(=O)Oc2ccc(Cl)c(Cl)c2)CCC1=O (stereo partly drawn) [Example 7, (R,S)-4-[3-((S)-4-Hydroxy-6-aza-spiro[2.5]oct-6-yl)-1-methoxymethyl-propyl]-5-oxo-[1,4]diazepane-1-carboxylic acid 3,4-dichloro-phenyl ester] | 370 nM
12 | O=C1CCN(C(=O)Nc2ccc(Cl)c(Cl)c2)CCN1CCCN1CCC2(CC2)[C@H](O)C1 [Example 54, 4-[3-((S)-4-Hydroxy-6-aza-spiro[2.5]oct-6-yl)-propyl]-5-oxo-[1,4]diazepane-1-carboxylic acid (3,4-dichloro-phenyl)-amide] | 6 nM
13 | O=C(NCc1ccc(Cl)c(Cl)c1)OC[C@H](CCN1CCC2(CC2)[C@H](O)C1)N1CCN(C(=O)NCc2ccc(Cl)c(Cl)c2)CCC1=O [Example 52, (3,4-dichloro-benzyl)-carbamic acid (S)-2-[4-(3,4-dichloro-benzylcarbamoyl)-7-oxo-[1,4]diazepan-1-yl]-4-((S)-4-hydroxy-6-aza-spiro[2.5]oct-6-yl)-butyl ester] | 960 nM
14 | C[C@H]1C(=O)N(CCCN2CCC3(CC3)[C@H](O)C2)CCN1C(=O)Nc1ccc2ccccc2c1 [Example 75, (S)-4-[3-((S)-4-Hydroxy-6-aza-spiro[2.5]oct-6-yl)-propyl]-2-methyl-3-oxo-piperazine-1-carboxylic acid naphthalen-2-ylamide] | 3 nM
15 | COCC(CCN1CCC2(CC2)[C@H](O)C1)N1CC(C)N(C(=O)Nc2cccc(C(F)(F)F)c2)CCC1=O (stereo in doubt) [Example 66, (R)-4-[(S)-3-((S)-4-Hydroxy-6-aza-spiro[2.5]oct-6-yl)-1-methoxymethyl-propyl]-2-methyl-5-oxo-[1,4]diazepane-1-carboxylic acid (3-trifluoromethyl-phenyl)-amide] | 33 nM
16 | C[C@H]1C(=O)N(CCCCN2CCC3(CC3)[C@H](O)C2)CCN1C(=O)Nc1cccc(-c2ccncc2)c1 [Example 95, (S)-4-[4-((S)-4-Hydroxy-6-aza-spiro[2.5]oct-6-yl)-butyl]-2-methyl-3-oxo-piperazine-1-carboxylic acid (3-pyridin-4-yl-phenyl)-amide] | 565 nM
17 | C[C@H]1C(=O)N(CCCN2CCCCC2)CCN1C(=O)Nc1ccc(Cl)c(Cl)c1 [Example 37, (S)-2-Methyl-3-oxo-4-(3-piperidin-1-yl-propyl)-piperazine-1-carboxylic acid (3,4-dichloro-phenyl)-amide] | 50 nM
18 | C[C@H]1C(=O)N(CCCN2CCC3(CC3)[C@H](O)C2)CCN1C(=O)Nc1cccc(-c2ccccc2)c1 [Example 78, (S)-4-[3-((S)-4-Hydroxy-6-aza-spiro[2.5]oct-6-yl)-propyl]-2-methyl-3-oxo-piperazine-1-carboxylic acid biphenyl-3-ylamide] | 2 nM
19 | Cc1ccc(NC(=O)N2CCC(=O)N(CCCN3CCC4(CC4)[C@H](O)C3)C[C@H]2C)cc1C [Example 61, (R)-4-[3-((S)-4-Hydroxy-6-aza-spiro[2.5]oct-6-yl)-propyl]-2-methyl-5-oxo-[1,4]diazepane-1-carboxylic acid (3,4-dimethyl-phenyl)-amide] | 210 nM
20 | O=C1CCN(C(=O)Nc2ccc(Cl)c(Cl)c2)[C@H](c2ccccc2)CN1CCCN1CCCCC1 [Example 30, (R)-5-Oxo-2-phenyl-4-(3-piperidin-1-yl-propyl)-[1,4]diazepane-1-carboxylic acid (3,4-dichloro-phenyl)-amide] | 960 nM
21 | C[C@H]1CCN(CCCN2CCN(C(=O)Nc3ccc(Cl)c(Cl)c3)[C@@H](C)C2=O)C[C@H]1O [Example 47, (S)-4-[3-((3S,4S)-3-Hydroxy-4-methyl-piperidin-1-yl)-propyl]-2-methyl-3-oxo-piperazine-1-carboxylic acid (3,4-dichloro-phenyl)-amide] | 7 nM
